Data taken from US20240158446A1, “CYCLIC COMPOUND HAVING SELECTIVE INHIBITORY ACTION ON KRAS OVER HRAS AND NRAS” (CHUGAI SEIYAKU KABUSHIKI KAISHA, priority 2021, published 2024).

Key:
[1] = target: GDP-bound KRAS wild-type protein (Homo sapiens, UniProt P01116); experiment: Binding to KRAS by surface plasmon resonance (SPR), Single Cycle Kinetics; details: SPR, Single Cycle Kinetics, 1:1 binding model; GDP-bound KRAS wild-type protein; read-out: KRAS KD
[2] = target: GDP-bound NRAS wild-type protein (Homo sapiens, UniProt P01111); experiment: Binding to NRAS by surface plasmon resonance (SPR), Single Cycle Kinetics; details: SPR; GDP-bound NRAS wild-type protein vs GDP-bound KRAS wild-type protein; KD ratio class
GDP-bound NRAS wild-type protein, sequence (P01111 whole entry): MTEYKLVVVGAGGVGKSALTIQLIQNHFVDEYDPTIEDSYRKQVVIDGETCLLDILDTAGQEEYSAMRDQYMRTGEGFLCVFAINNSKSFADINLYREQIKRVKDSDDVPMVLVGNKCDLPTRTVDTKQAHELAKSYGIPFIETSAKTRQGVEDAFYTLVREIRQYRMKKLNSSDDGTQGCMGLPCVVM

[3] = target: GDP-bound HRAS wild-type protein (Homo sapiens, UniProt P01112); experiment: Binding to HRAS by surface plasmon resonance (SPR), Single Cycle Kinetics; details: SPR; GDP-bound HRAS wild-type protein vs GDP-bound KRAS wild-type protein; KD ratio class
GDP-bound HRAS wild-type protein, sequence (P01112 whole entry): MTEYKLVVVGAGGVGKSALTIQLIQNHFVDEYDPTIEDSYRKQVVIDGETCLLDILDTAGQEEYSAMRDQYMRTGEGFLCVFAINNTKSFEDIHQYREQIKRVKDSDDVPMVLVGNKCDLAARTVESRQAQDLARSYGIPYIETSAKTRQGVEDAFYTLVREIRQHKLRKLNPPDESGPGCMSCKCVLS

[4] = test system: human lung cancer strain NCI-H441;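 note: cell proliferation inhibition after four days measured by CellTiter-Glo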

GDP-bound KRAS wild-type protein, sequence (P01116 whole entry): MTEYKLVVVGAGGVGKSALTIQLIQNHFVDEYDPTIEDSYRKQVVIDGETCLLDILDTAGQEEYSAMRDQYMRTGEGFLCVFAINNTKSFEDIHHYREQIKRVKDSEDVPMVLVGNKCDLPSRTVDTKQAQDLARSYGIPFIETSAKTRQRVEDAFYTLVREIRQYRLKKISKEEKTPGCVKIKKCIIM

Row | Compound | Kd [1] | IC50 [4] | NRAS/KRAS (ratio of KD value for NRAS to KD value for KRAS) [2] | HRAS/KRAS (ratio of KD value for HRAS to KD value for KRAS) [3]
1 | CCO[C@@H]1C[C@H]2C(=O)NC3(CCC3)C(=O)N(C)[C@@H](C(CC)CC)C(=O)N(C)[C@H](C(=O)N3CCCC3)CC(=O)N(C)[C@@H](COC)C(=O)N[C@@H]([C@@H](C)CC)C(=O)N(C)CC(=O)N(C)[C@H]3C/C=C\CCN(C3=O)[C@@H](CC3CCCCC3)C(=O)N(C)CC(=O)N[C@@H](CCc3cc(F)c(C(F)(F)F)c(F)c3)C(=O)N2C1 [PP1438] | 0.55 nM | 89.4 nM | AA (a compound having 20 or more is denoted as AA) | A (a compound having 10 or more and less than 20 is denoted as A)
2 | CCO[C@@H]1C[C@H]2C(=O)NC3(CCC3)C(=O)N(C)[C@@H](C3CCCC3)C(=O)N(C)[C@H](C(=O)N3CCCC3)CC(=O)N(C)[C@@H](CC)C(=O)N[C@@H]([C@@H](C)CC)C(=O)N(C)CC(=O)N(C)[C@H]3C/C=C\CCN(C3=O)[C@@H](CC3CCCCC3)C(=O)N(C)CC(=O)N[C@@H](CCc3cc(F)c(C(F)(F)F)c(F)c3)C(=O)N2C1 [PP1443, (2S,8S,12R,14S,20S,23S,27S,30S,36S,38Z)-2-(cyclohexylmethyl)-20-cyclopentyl-8-[2-[3,5-difluoro-4-(trifluoromethyl)phenyl]ethyl]-12-ethoxy-27-ethyl-4,19,22,26,32,35-hexamethyl-30-[(1S)-1-methylpropyl]-23-(pyrrolidine-1-carbonyl)spiro[1,4,7,10,16,19,22,26,29,32,35-undecazatricyclo[34.5.1.0^10,14]dotetracont-38-ene-17,1′-cyclobutane]-3,6,9,15,18,21,25,28,31,34,42-undecone] | 0.15 nM | 34.8 nM | AA (a compound having 20 or more is denoted as AA) | A (a compound having 10 or more and less than 20 is denoted as A)
3 | CCO[C@@H]1C[C@H]2C(=O)NC3(CCC3)C(=O)N(C)[C@@H](C3CCCC3)C(=O)N(C)[C@H](C(=O)N3CCC3)CC(=O)N(C)[C@@H](CC)C(=O)N[C@@H]([C@@H](C)CC)C(=O)N(C)CC(=O)N(C)[C@H]3C/C=C\CCN(C3=O)[C@@H](CC3CCCCC3)C(=O)N(C)CC(=O)N[C@@H](CCc3cc(F)c(C(F)(F)F)c(F)c3)C(=O)N2C1 [PP1445] | 0.27 nM | 92.8 nM | A (a compound having 10 or more and less than 20 is denoted as A) | A (a compound having 10 or more and less than 20 is denoted as A)
4 | CCO[C@@H]1C[C@H]2C(=O)NC3(CCC3)C(=O)N(C)[C@@H](C3CCCC3)C(=O)N(C)[C@H](C(=O)N(C)C)CC(=O)N(C)[C@@H](CC3CC3)C(=O)N[C@@H]([C@@H](C)CC)C(=O)N(C)CC(=O)N(C)[C@H]3C/C=C\CCN(C3=O)[C@@H](CC3CCCCC3)C(=O)N(C)CC(=O)N[C@@H](CCc3cc(F)c(C(F)(F)F)c(F)c3)C(=O)N2C1 [PP1446] | 0.2 nM | 32 nM | A (a compound having 10 or more and less than 20 is denoted as A) | A (a compound having 10 or more and less than 20 is denoted as A)
5 | CCO[C@@H]1C[C@H]2C(=O)NC3(CCC3)C(=O)N(C)[C@@H](C3CCCC3)C(=O)N(C)[C@H](C(=O)N(C)C)CC(=O)N(C)[C@@H](CC3CC3)C(=O)N[C@@H]([C@@H](C)CC)C(=O)N(C)CC(=O)N(C)[C@H]3C/C=C\CCN(C3=O)[C@@H](CC3CCC(F)(F)CC3)C(=O)N(C)CC(=O)N[C@@H](CCc3cc(F)c(C(F)(F)F)c(F)c3)C(=O)N2C1 [PP1447, (2S,8S,12R,14S,20S,23S,27S,30S,36S,38Z)-20-cyclopentyl-27-(cyclopropylmethyl)-2-[(4,4-difluorocyclohexyl)methyl]-8-[2-[3,5-difluoro-4-(trifluoromethyl)phenyl]ethyl]-12-ethoxy-N,N,4,19,22,26,32,35-octamethyl-30-[(1S)-1-methylpropyl]-3,6,9,15,18,21,25,28,31,34,42-undecaoxo-spiro[1,4,7,10,16,19,22,26,29,32,35-undecazatricyclo[34.5.1.0^10,14]dotetracont-38-ene-17,1′-cyclobutane]-23-carboxamide] | 0.12 nM | 28.9 nM | A (a compound having 10 or more and less than 20 is denoted as A) | A (a compound having 10 or more and less than 20 is denoted as A)
6 | CC[C@H](C)[C@@H]1NC(=O)[C@H](CC)N(C)C(=O)C[C@@H](C(=O)N(C)C)N(C)C(=O)[C@H](C2CCCC2)N(C)C(=O)C2(CCC2)NC(=O)[C@@H]2CC(F)(F)CN2C(=O)[C@H](CCc2cc(F)c(C(F)(F)F)c(F)c2)NC(=O)CN(C)C(=O)[C@H](CC2CCC(F)(F)CC2)N2CC/C=C\C[C@@H](C2=O)N(C)C(=O)CN(C)C1=O [PP1448, (2S,8S,14S,20S,23S,27S,30S,36S,38Z)-20-cyclopentyl-2-[(4,4-difluorocyclohexyl)methyl]-8-[2-[3,5-difluoro-4-(trifluoromethyl)phenyl]ethyl]-27-ethyl-12,12-difluoro-N,N,4,19,22,26,32,35-octamethyl-30-[(1S)-1-methylpropyl]-3,6,9,15,18,21,25,28,31,34,42-undecaoxo-spiro[1,4,7,10,16,19,22,26,29,32,35-undecazatricyclo[34.5.1.0^10,14]dotetracont-38-ene-17,1′-cyclobutane]-23-carboxamide] | 0.059 nM | 8.3 nM | A (a compound having 10 or more and less than 20 is denoted as A) | A (a compound having 10 or more and less than 20 is denoted as A)

Second part, led by results:

Row | Kd [1] | IC50 [4] | Compound | NRAS/KRAS (ratio of KD value for NRAS to KD value for KRAS) [2] | HRAS/KRAS (ratio of KD value for HRAS to KD value for KRAS) [3]
7 | 0.29 nM | 47.4 nM | CCO[C@@H]1C[C@H]2C(=O)NC3(CCC3)C(=O)N(C)[C@@H](C(CC)CC)C(=O)N(C)[C@H](C(=O)N3CCCC3)CC(=O)N(C)[C@@H](C)C(=O)N[C@@H]([C@@H](C)CC)C(=O)N(C)CC(=O)N(C)[C@H]3C/C=C\CCN(C3=O)[C@@H](CC3CCC(F)(F)CC3)C(=O)N(C)CC(=O)N[C@@H](CCc3cc(F)c(C(F)(F)F)c(F)c3)C(=O)N2C1 [PP1436] | AA (a compound having 20 or more is denoted as AA) | A (a compound having 10 or more and less than 20 is denoted as A)
8 | 0.61 nM | 220 nM | CCO[C@@H]1C[C@H]2C(=O)NC3(CCCC3)C(=O)N(C)[C@@H](C(CC)CC)C(=O)N(C)[C@H](C(=O)N3CCCC3)CC(=O)N(C)[C@@H](C)C(=O)N[C@@H]([C@@H](C)CC)C(=O)N(C)CC(=O)N(C)[C@H]3C/C=C\CCN(C3=O)[C@@H](CC3CCC(F)(F)CC3)C(=O)N(C)CC(=O)N[C@@H](CCc3cc(F)c(C(F)(F)F)c(F)c3)C(=O)N2C1 [PP1437] | A (a compound having 10 or more and less than 20 is denoted as A) | A (a compound having 10 or more and less than 20 is denoted as A)
9 | 1.2 nM | 87.3 nM | CCO[C@@H]1C[C@H]2C(=O)NC3(CCCC3)C(=O)N(C)[C@@H](C(CC)CC)C(=O)N(C)[C@H](C(=O)N3CCCC3)CC(=O)N(C)[C@@H](COC)C(=O)N[C@@H]([C@@H](C)CC)C(=O)N(C)CC(=O)N(C)[C@H]3C/C=C\CCN(C3=O)[C@@H](CC3CCCCC3)C(=O)N(C)CC(=O)N[C@@H](CCc3cc(F)c(C(F)(F)F)c(F)c3)C(=O)N2C1 [PP1439] | AA (a compound having 20 or more is denoted as AA) | A (a compound having 10 or more and less than 20 is denoted as A)
10 | 0.35 nM | 69.7 nM | CCO[C@@H]1C[C@H]2C(=O)NC3(CCC3)C(=O)N(C)[C@@H](C(CC)CC)C(=O)N(C)[C@H](C(=O)N3CCCC3)CC(=O)N(C)[C@@H](COC)C(=O)N[C@@H]([C@@H](C)CC)C(=O)N(C)CC(=O)N(C)[C@H]3C/C=C\CCN(C3=O)[C@@H](CC3CCC(F)(F)CC3)C(=O)N(C)CC(=O)N[C@@H](CCc3cc(F)c(C(F)(F)F)c(F)c3)C(=O)N2C1 [PP1440] | AA (a compound having 20 or more is denoted as AA) | A (a compound having 10 or more and less than 20 is denoted as A)
11 | 0.7 nM | 87.6 nM | CCO[C@@H]1C[C@H]2C(=O)NC3(CCCC3)C(=O)N(C)[C@@H](C(CC)CC)C(=O)N(C)[C@H](C(=O)N3CCCC3)CC(=O)N(C)[C@@H](COC)C(=O)N[C@@H]([C@@H](C)CC)C(=O)N(C)CC(=O)N(C)[C@H]3C/C=C\CCN(C3=O)[C@@H](CC3CCC(F)(F)CC3)C(=O)N(C)CC(=O)N[C@@H](CCc3cc(F)c(C(F)(F)F)c(F)c3)C(=O)N2C1 [PP1441] | A (a compound having 10 or more and less than 20 is denoted as A) | A (a compound having 10 or more and less than 20 is denoted as A)
12 | 0.19 nM | 103 nM | CCO[C@@H]1C[C@H]2C(=O)NC3(CCC3)C(=O)N(C)[C@@H](C3CCCC3)C(=O)N(C)[C@H](C(=O)N3CCC3)CC(=O)N(C)[C@@H](CC)C(=O)N[C@@H]([C@@H](C)CC)C(=O)N(C)CC(=O)N(C)[C@H]3C/C=C\CCN(C3=O)[C@@H](CC3CCC(F)(F)CC3)C(=O)N(C)CC(=O)N[C@@H](CCc3cc(F)c(C(F)(F)F)c(F)c3)C(=O)N2C1 [PP1444] | A (a compound having 10 or more and less than 20 is denoted as A) | A (a compound having 10 or more and less than 20 is denoted as A)
